Results on five compounds are retold here after patent publication US20120053123A1, “NATRIURETIC POLYPEPTIDES HAVING MUTATIONS WITHIN THEIR DISULFIDE RINGS” (priority 2009, published 2012).

Data set [1] deals with vascular smooth muscle cells. In words: Proliferation of vascular smooth muscle cells in culture (BrdU). The data set is classed as cell-based. The note with it: 10^-5 M to 10^-8 M; for ABC-NP and ABC-NP1 all concentrations about the same effect, FIG. 21. An excerpt:
FIG. 21 is a graph plotting levels of proliferation of vascular smooth muscle cells after treatment with 10^−5 M, 10^−6 M, 10^−7 M, or 10^−8 M ANP, BNP, CNP, ABC-NP, or ABC-NP1, measured by assessing bromodeoxyuridine (BrdU) levels.

For another data set, the system named is normal anesthetized dogs. In words: Cardiorenal and humoral actions of intravenous bolus in normal anesthetized dogs. It counts as in vivo, dog. The note with it: i.v. bolus 25 microgram/Kg; for reduction in right atrial pressure (RAP) / reduction in pulmonary capillary wedge pressure (PCWP): ABC-NP1 compared with ABC-NP; for reduction in right atrial pressure (RAP): FIG. 6; for reduction in pulmonary capillary wedge pressure (PCWP): FIG. 7; for urine flow (UV), diuresis: n=5, FIG. 3; for urinary sodium excretion (UNaV), natriuresis: n=5, FIG. 4; for mean arterial blood pressure (MAP): n=5, FIG. 5. As to the method:
(§1) Cardiorenal and humoral actions of intravenous bolus administration of ABC-NP1 (n=5) and ABC-NP (n=5) at 25 microgram/Kg were evaluated in two separate groups of normal anesthetized dogs. The cGMP response of both peptides also was assessed in HAEC, HCF, and isolated canine glomeruli.

Data set [2] deals with human cardiac fibroblasts (HCF). Briefly: cGMP generation in cultured human cardiac fibroblasts (HCF). The note with it: FIG. 8, p<0.05. It counts as cell-based.
Excerpt: (§2) Variant NPs having conservative and/or non-conservative substitutions (e.g., with respect to any of SEQ ID NOS:1 to 51), as well as fragments of any of SEQ ID NOS:1 to 51, fragments of variants of any of SEQ ID NOS:1 to 51, and polypeptides comprising any of SEQ ID NOS:1 to 51, variants or fragments of any of SEQ ID NOS:1 to 51, or fragments of variants of any of SEQ ID NOS:1 to 51, can be screened for biological activity using any of a number of assays, including those described herein. For example, the activity of a NP as described herein can be evaluated in vitro by testing its effect on cGMP production in cultured cells (e.g., cultured cardiac fibroblasts, aortic endothelial cells, or glomerular cells, as described in the Example herein). Cells can be exposed to a NP (e.g., 10^−9 to 10^−4 M NP), and samples can be assayed to evaluate the NP effects on cGMP generation. cGMP generation can be detected and measured using, for example, a competitive RIA cGMP kit (Perkin-Elmer, Boston, Mass.).
as §1

The subject of data set [3] is human aortic endothelial cells (HAEC). In words: cGMP generation in cultured human aortic endothelial cells (HAEC). It counts as cell-based. The note with it: FIG. 9, p<0.05.
Excerpt: as §2, §1

Data set [4] concerns isolated canine glomeruli. In words: cGMP generation in isolated canine glomeruli. The data set is classed as cell-based. The note with it: comparison between the two peptides, FIG. 10.
Excerpt: A NP as provided herein can function through one or more of the guanylyl cyclase receptors through which the native NPs function. For example, in some embodiments, a NP as provided herein can bind to and function through the NPR-A receptor through which ANP and BNP function. In some cases, a NP as provided herein can function through the NPR-B receptor through which CNP functions. Further, in some cases, a NP as provided herein can bind to and function through more than one guanylyl cyclase receptor, including NPR-A and NPR-B, for example. Methods for evaluating which receptor is involved in function of a particular NP are known in the art. For example, glomeruli, which contain both NPR-A and NPR-B, can be isolated (e.g., from a laboratory animal such as a dog) and incubated with a NP (e.g., a native, chimeric, or mutated NP), and cGMP levels can be measured. Glomeruli can be pretreated with antagonists of NPR-A or NPR-B to determine whether cGMP production stimulated by a NP through one or the other receptor can be attenuated.
as §1

The subject of data set [5] is dogs with rapid ventricular pacing-induced overt heart failure with cardiorenal dysfunction. Briefly: Cardiorenal and humoral actions of intravenous infusions in dogs with pacing-induced overt heart failure. It counts as in vivo, dog. The note with it: for glomerular filtration rate (GFR): FIG. 17; for renal blood flow: FIG. 18; for MAP: FIG. 12; for RAP: all doses (2, 10 and 100 pmol/kg/minute), FIG. 13; for PCWP: FIG. 14; for urinary sodium excretion (UNaV) / urine flow (UV): increasing doses 2, 10, 100 pmol/kg/minute. As to the method: The cardiorenal and humoral actions of intravenous infusions of ABC-NP and ABC-NP1 at 2, 10, and 100 pmol/kg/minute were examined in seven dogs with rapid ventricular pacing-induced overt heart failure with cardiorenal dysfunction (240 bpm for 10 days). As shown in the study protocol depicted in FIG. 11, baseline values for MAP, RAP, PCWP, UNaV, UV, GFR, renal blood flow, urinary cGMP excretion, plasma and cGMP were measured, and animals were then infused with 2 pmol/kg/minute ABC-NP or ABC-NP1 for a lead in period of 15 minutes followed by 30 minutes, then infusion with 10 pmol/kg/minute ABC-NP or ABC-NP1 for a lead in period of 15 minutes followed by 30 minutes, and finally infusion with 100 pmol/kg/minute ABC-NP or ABC-NP1 for a lead in period of 15 minutes followed by 30 minutes, and washout for 30 minutes. Pressure measurements were taken at the end of each NP infusion period, and blood and urine samples also were collected for analysis.

The conditions of data set [6]: previously shown, cited from earlier work.
The conditions of data set [7]: after administration to a mammal; cited from earlier work.
The mark [8] stands for this setting: HF dogs, highest dose (100 pmol/kg/minute), FIG. 19.
[9] abbreviates: HF dogs, highest dose (100 pmol/kg/minute), FIG. 20.
The mark [10] stands for this setting: HF dogs, i.v. infusion, highest dose (100 pmol/kg/minute).
Setting [11] is: HF dogs, two highest doses (10 and 100 pmol/kg/minute).

As for B-type natriuretic peptide [BNP], in data set [1], the “proliferation of vascular smooth muscle cells (BrdU levels)” value (from here on “proliferation”) is given as “decreased as the concentration decreased”.

As to `CC[C@H](C)[C@@H]1NC(=O)[C@H](CCCNC(=N)N)NC(=O)[C@H](CC(=O)O)NC(=O)[C@H](CCSC)NC(=O)[C@H](CCCNC(=N)N)NC(=O)CNC(=O)CNC(=O)[C@H](Cc2ccccc2)NC(=O)[C@@H](NC(=O)[C@H](CO)NC(=O)[C@H](CO)NC(=O)[C@H](CCCNC(=N)N)NC(=O)[C@H](CCCNC(=N)N)NC(=O)[C@H](CC(C)C)NC(=O)[C@@H](N)CO)CSSC[C@@H](C(=O)N[C@@H](CC(N)=O)C(=O)N[C@@H](CO)C(=O)N[C@@H](Cc2ccccc2)C(=O)N[C@@H](CCCNC(=N)N)C(=O)N[C@@H](Cc2ccc(O)cc2)C(=O)O)NC(=O)CNC(=O)[C@H](CC(C)C)NC(=O)CNC(=O)[C@H](CO)NC(=O)[C@H](CCC(N)=O)NC(=O)[C@H](C)NC(=O)CNC1=O` [ANP, atrial natriuretic peptide], the “proliferation” value in data set [1] was “decreased as the concentration decreased”.

As for “RMDRIGLSKGCFGLKLDRIREASGLGCKVLRRH [ABC-NP, ANP residues 11-15, mutated CNP in which GSM15-17 were changed to REA, and six C-terminal amino acids of BNP]”, in the data set on normal anesthetized dogs, the “reduction in right atrial pressure (RAP)” value is reported as “reduction”; the “reduction in pulmonary capillary wedge pressure (PCWP)” value is recorded as “reduction”; the “urine flow (UV), diuresis” value is “resulted in diuresis”; the “urinary sodium excretion (UNaV), natriuresis” value is given as “natriuresis”. Besides, in the data set on normal anesthetized dogs, the “mean arterial blood pressure (MAP)” value is listed as “no change”. The cGMP generation entry in data set [2] is “minimal”. Further, in data set [3], the cGMP generation result is “minimal”. For the same compound, the cGMP generation entry in data set [4] was “similar”. The “glomerular filtration rate (GFR)” value in data set [5] (HF dogs, 2, 10, 100 pmol/kg/minute, significant increase only at highest dose) is recorded as “significance was not achieved with ABC-NP until the highest dose was used”. Besides, in data set [5] (HF dogs, 2, 10 and 100 pmol/kg/minute), the renal blood flow entry is “no effect”. Besides, the “urinary cGMP excretion” value in data set [5] (setting [8]) was “significantly increased”. Moreover, the “plasma cGMP” value in data set [5] (setting [9]) was “significantly increased”. Moreover, the MAP entry in data set [5] (HF dogs, i.v. infusion 2, 10 and 100 pmol/kg/minute) is “no effect”. Also, the RAP result in data set [5] (HF dogs, i.v. infusion) was “increased”. Moreover, the PCWP result in data set [5] (HF dogs, i.v. infusion, higher doses (10 and 100 pmol/kg/minute)) is on record as “did not affect”. Also, the PCWP entry in data set [5] (HF dogs, i.v. infusion, lowest dose (2 pmol/kg/minute), vs baseline) is “reduced PCWP as compared to baseline”. For the same compound, the “urinary sodium excretion (UNaV)” value in data set [5] (HF dogs, FIG. 15) was “increasing effects”. Moreover, in data set [5] (HF dogs, FIG. 16), the “urine flow (UV)” value is “increasing effects”. For the same compound, in data set [1], the “proliferation” value is recorded as “reduced proliferation”.

For “RMDRIGLSKGCFGLKLDRIGSMSGLGCKVLRRH [ABC-NP1]”, in the data set on normal anesthetized dogs, the “reduction in right atrial pressure (RAP)” value is recorded as “significantly greater”; the “reduction in pulmonary capillary wedge pressure (PCWP)” value is “significantly greater”; the “urine flow (UV), diuresis” value is listed as “resulted in diuresis”; the “urinary sodium excretion (UNaV), natriuresis” value was “natriuresis”. Moreover, in the data set on normal anesthetized dogs, the “mean arterial blood pressure (MAP)” value is reported as “significant decrease”. Moreover, the cGMP generation result in data set [2] is reported as “significantly higher”. In addition, in data set [3], the cGMP generation result is on record as “significantly higher”. For the same compound, the cGMP generation result in data set [4] is “similar”. Besides, the “effect on UNaV relative to ABC-NP” value in data set [5] (HF dogs, ABC-NP1 vs ABC-NP, FIG. 15) was 5- to 6.5 fold. For the same compound, the “effect on UV relative to ABC-NP” value in data set [5] (HF dogs, ABC-NP1 vs ABC-NP, FIG. 16) is listed as 1.5- to 2 fold. Also, the “urinary cGMP excretion” value in data set [5] (setting [8]) is given as “significantly increased”. Further, the “plasma cGMP” value in data set [5] (setting [9]) was “significantly increased”. Moreover, in data set [5] (HF dogs, highest dose, ABC-NP1 vs ABC-NP, FIG. 19), the “effect on urinary cGMP excretion relative to ABC-NP” value is reported as “about a two-fold greater effect”. The “effect on plasma cGMP relative to ABC-NP” value in data set [5] (HF dogs, highest dose, ABC-NP1 vs ABC-NP, FIG. 20) is on record as “about a two-fold greater effect”. Moreover, the RAP entry in data set [5] (HF dogs, i.v. infusion) is “significantly reduced”. Also, in data set [5] (setting [10]), the MAP entry is given as “significantly reduced” and the PCWP result is “significantly reduced”. In addition, the “urinary sodium excretion (UNaV)” value in data set [5] (HF dogs, FIG. 15) was “increasing effects”. The “urine flow (UV)” value in data set [5] (HF dogs, FIG. 16) is reported as “increasing effects”. Also, in data set [5] (setting [11]), the “glomerular filtration rate (GFR)” value is given as “significant increases” and the renal blood flow result is “significant increases”. Also, the “proliferation” value in data set [1] is reported as “reduced proliferation”. Moreover, in data set [6] (result of N- and C-terminal alterations), the renal excretory actions result is on record as “potent renal excretory actions”. In addition, in data set [6] (similar to CNP), the cardiac actions result is “cardiac unloading actions” and the hypotensive effects entry is “mild hypotensive effects”.

In the case of C-type natriuretic peptide [CNP], the “proliferation” value in data set [1] is on record as “decreased as the concentration decreased”. The half-life entry in data set [7] was “about a minute and a half”.
